Read-outs that look alike come from different tables or passages of the source.
Test system: MDA-MB-231 cells
Assay: LPS-mediated DOX resistance, AlamarBlue cell viability assay
Assay type: cell-based
Conditions: Homo sapiens
Procedure: LPS ability to mediate DOX-resistance was examined to simulate the MDR phenotype of MDA-MB-231. Herein, there is compared the sensitivity of non-stimulated MDA-MB-231 cells and LPS-stimulated cells at an optimized migratory concentration of LPS (20 µg/mL) to DOX treatment. AlamarBlue cell viability assay was used to evaluate the ability of LPS activation to induce DOX resistance. […] On the contrary, LPS-stimulated cells were 64±4% viable after 24 hr of DOX-treatment. Remarkably, pretreatment with LPS for 24 hr was clearly able to reduce chemosensitivity, lessen DOX cytotoxicity, and increase cell survival approximately to 6-fold (p-value <0.0005) after 48 hr treatment. These quantitative results provide strong evidence of inflammation-based MDR mechanism specifically to DOX treatment in MDA-MB-231 cells.
MDA-MB-231 cells were plated out in 96-well tissue culture plates at 1 ×10^4 cells per well and treated with or without LPS at concentration of (20 µg/mL) for 24 hr. Cells were then left untreated or treated simultaneously with (0.67 µg/mL) of the chemotherapeutic drug (DOX) and various doses of CS-TPP-HA-AGP NPs (50, 100, and 300 µg/ml). After further incubation for 48 or 72 hr, Cells were subjected to AlamarBlue cell viability assay. […] Fluorescence spectra were recorded at λex:550, λem:600 using BioTek Cytation 5™ multi-mode Microplate Reader-Gen5™ software.

## COc1cccc2c1C(=O)c1c(O)c3c(c(O)c1C2=O)C[C@@](O)(C(=O)CO)C[C@@H]3O[C@H]1C[C@H](N)[C@H](O)[C@H](C)O1 [DOX, doxorubicin]
MDA-MB-231, 24 h, read-out: cell viability
  viability at 0.67 µg/mL: 64 ± 4%
MDA-MB-231, read-out: cell viability
  viability at 0.67 µg/mL: 11 ± 10%

Reference: patent US20230248659A1, “IMMUNE SUPPRESSING NANOPARTICLES FOR ROBUST SENSITIZATION OF DRUG-RESISTANT CANCER” (King Abdulaziz City for Science and Technology ( KACST), priority 2021, published 2023)
